From patent US7119088B2, “Triazole compounds useful in therapy” (Pfizer Inc., priority 2003, dated 2006) come the findings set out here.

This experiment concerns the target T1, human V1A receptor (Homo sapiens, UniProt P37288).
T1 construct: host or cells: CHO (CHO-hV1A), membrane preparation
In words: V1A filter binding assay (screen 1.0). The conditions noted are these: [3H]-AVP binding to CHO-hV1A membranes; Ki by Cheng-Prusoff. As for the experimental part:
1.0 V1A Filter Binding Assay
Receptor binding assays were performed on cellular membranes prepared from CHO cells stably expressing the human V1A receptor, (CHO-hV1A). The CHO-hV1A cell line was kindly provided under a licensing agreement by Marc Thibonnier, Dept. of Medicine, Case Western Reserve University School of Medicine, Cleveland, Ohio. CHO-hV1A cells were routinely maintained at 37° C. in humidified atmosphere with 5% CO2 in DMEM/Hams F12 nutrient mix supplemented with 10% fetal bovine serum, 2 mM L-glutamine, 15 mM HEPES and 400 μg/ml G418. For bulk production of cell pellets, adherent CHO-hV1A cells were grown to confluency of 90–100% in 850 cm^2 roller bottles containing a medium of DMEM/Hams F12 Nutrient Mix supplemented with 10% fetal bovine serum, 2 mM L-glutamine and 15 mM HEPES. Confluent CHO-hV1A cells were washed with phosphate-buffered saline (PBS), harvested into ice cold PBS and centrifuged at 1,000 rpm. Cell pellets were stored at −80° C. until use. Cell pellets were thawed on ice and homogenised in membrane preparation buffer consisting of 50 mM Tris-HCl, pH 7.4, 5 mM MgCl2 and supplemented with a protease inhibitor cocktail, (Roche). The cell homogenate was centrifuged at 1000 rpm, 10 min, 4° C. and the supernatant was removed and stored on ice. The remaining pellet was homogenised and centrifuged as before. The supernatants were pooled and centrifuged at 25,000×g for 30 min at 4° C. The pellet was resuspended in freezing buffer consisting of 50 mM Tris-HCl, pH 7.4, 5 mM MgCl2 and 20% glycerol and stored in small aliquots at −80° C. until use. Protein concentration was determined using Bradford reagent and BSA as a standard.
Protein linearity followed by saturation binding studies were performed on each new batch of membrane. Membrane concentration was chosen that gave specific binding on the linear portion of the curve.
Compounds were tested for their effects on [^3H]-AVP binding to CHO-hV1A membranes, (^3H-AVP; specific activity 65.5 Ci/mmol; NEN Life Sciences). Compounds were solubilised in dimethylsulfoxide (DMSO) and diluted to working concentration of 10% DMSO with assay buffer containing 50 mM Tris-HCL pH 7.4, 5 mM MgCl2 and 0.05% BSA. […] The binding reaction was initiated by the addition of 200 μl membrane and the plates were gently shaken for 60 min at room temperature. […] The filters were washed three times with 1 ml ice cold wash buffer containing 50 mM Tris-HCL pH 7.4 and 5 mM MgCl2. The plates were dried and 50 μl Microscint-O (Packard instruments) was added to each well. The plates were sealed and counted on a TopCount Microplate Scintillation Counter (Packard Instruments). Non-specific binding (NSB) was determined using 1 μM unlabelled d(CH2)5Tyr(Me)AVP ([β-mercapto-β,β-cyclopentamethylenepropionyl,0-Me-Tyr^2,Arg^8]-vasopressin ) (βMCPVP), (Sigma). The radioligand binding data was analysed using a four parameter logistic equation with the min forced to 0%. […] Specific binding was calculated by subtracting the mean NSB cpm from the mean Total cpm. For test compounds the amount of ligand bound to the receptor was expressed as % bound=(sample cpm—mean NSB cpm)/specific binding cpm×100. The % bound was plotted against the concentration of test compound and a sigmoidal curve was fitted. The inhibitory dissociation constant (Ki) was calculated using the Cheng-Prusoff equation: Ki=IC50/(1+[L]/Kd) where [L] is the concentration of ligand present in the well and Kd is the dissociation constant of the radioligand obtained from Scatchard plot analysis.

Counter-ions that a name gives are not always drawn.

T1 sequence (P37288 whole entry): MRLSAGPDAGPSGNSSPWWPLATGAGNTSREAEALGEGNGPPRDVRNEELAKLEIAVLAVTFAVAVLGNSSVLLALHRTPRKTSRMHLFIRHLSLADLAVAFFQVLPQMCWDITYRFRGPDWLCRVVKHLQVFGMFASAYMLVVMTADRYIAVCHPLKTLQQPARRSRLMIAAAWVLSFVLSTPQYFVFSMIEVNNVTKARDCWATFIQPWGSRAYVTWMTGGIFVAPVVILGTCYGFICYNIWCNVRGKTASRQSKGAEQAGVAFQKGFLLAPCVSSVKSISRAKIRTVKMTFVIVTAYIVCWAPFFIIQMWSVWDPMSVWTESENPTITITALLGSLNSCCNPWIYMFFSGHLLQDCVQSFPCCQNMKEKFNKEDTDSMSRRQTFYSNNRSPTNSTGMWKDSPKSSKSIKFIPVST

Turning to `Clc1ccc2c(c1)CCOCc1nnc(C3CCN(c4ccccn4)CC3)n1-2` [Example 27, 13-Chloro-3-(3,4,5,6-tetrahydro-2H-[1,2′]bipyridinyl-4-yl)-8-oxa-2,4,5-triaza-tricyclo[9.4.0.0*2,6*]pentadeca-1(11),3,5,12,14-pentaene], the inhibition constant (Ki) (in general, the dissociation constant of the complex between target and ligand, obtained from inhibition or displacement) is 1.25 nM. For `CN1CCc2cc(Cl)ccc2-n2c(nnc2C2CCN(c3ncccn3)CC2)C1` [Example 103, 13-Chloro-8-methyl-3-(1-pyrimidin-2-yl-piperidin-4-yl)-2,4,5,8-tetraaza-tricyclo[9.4.0.0*2,6*]pentadeca-1(11),3,5,12,14-pentaene] the value was 2.02 nM; for `CS(=O)(=O)N1Cc2cc(Cl)ccc2-n2c(nnc2C2CCN(c3ncccn3)CC2)C1` [Example 15, 8-Chloro-5-methanesulfonyl-1-(1-pyrimidin-2-yl-piperidin-4-yl)-5,6-dihydro-4H-2,3,5,10b-tetraaza-benzo[e]azulene], 4.71 nM; for `Clc1ccc2c(c1)CN(c1ncccn1)Cc1nnc(C3CCN(c4ccccn4)CC3)n1-2` [Example 93, 8-Chloro-5-pyrimidin-2-yl-1-(3,4,5,6-tetrahydro-2H-[1,2′]bipyridinyl-4-yl)-5,6-dihydro-4H-2,3,5,10b-tetraaza-benzo[e]azulene], 2.33 nM. Compound `CC(C)N1Cc2cc(Cl)ccc2-n2c(nnc2C2CCN(c3ccccn3)CC2)C1` [Example 6, 8-Chloro-5-isopropyl-1-(3,4,5,6-tetrahydro-2H-[1,2′]bipyridinyl-4-yl)-5,6-dihydro-4H-2,3,5,10b-tetraaza-benzo[e]azulene trihydrochloride] gave a Ki of 2.37 nM. For `CN1CCc2nnc(C3CCN(c4ccccn4)CC3)n2-c2ccc(Cl)cc2C1` [Example 102, 13-Chloro-9-methyl-3-(3,4,5,6-tetrahydro-2H-[1,2′]bipyridinyl-4-yl)-2,4,5,9-tetraaza-tricyclo[9.4.0.0*2,6*]pentadeca-1(11),3,5,12,14-pentaene] the value was 4.16 nM. The compound `CN1CCOC(CN2Cc3cc(Cl)ccc3-n3c(nnc3C3CCN(c4ccccn4)CC3)C2)C1` (single isomer, unassigned) [Example 73, 8-Chloro-5-(4-methyl-morpholin-2-ylmethyl)-1-(3,4,5,6-tetrahydro-2H-[1,2′]bipyridinyl-4-yl)-5,6-dihydro-4H-2,3,5,10b-tetraaza-benzo[e]azulene] registered a Ki of 6.84 nM. Turning to `O=C(N1CCOCC1)N1Cc2cc(Cl)ccc2-n2c(nnc2C2CCN(c3ccccn3)CC2)C1` [Example 59], the affinity, expressed as Ki, was 1.32 nM.

`CN(C)S(=O)(=O)N1Cc2cc(Cl)ccc2-n2c(nnc2C2CCN(c3ncccn3)CC2)C1` [Example 100, 8-Chloro-1-(1-pyrimidin-2-yl-piperidin-4-yl)-4H,6H-2,3,5,10b-tetraaza-benzo[e]azulene-5-sulphonic acid dimethylamide] yielded a Ki of 0.77 nM. `CN(C)CC(=O)N1Cc2cc(Cl)ccc2-n2c(nnc2C2CCN(c3ccccn3)CC2)C1` [Example 38, 1-[8-Chloro-1-(3,4,5,6-tetrahydro-2H-[1,2′]bipyridinyl-4-yl)-4H,6H-2,3,5,10b-tetraaza-benzo[e]azulen-5-yl]-2-dimethylamino-ethanone] returned a Ki of 4.63 nM. In turn, `CN1Cc2cc(Cl)ccc2-n2c(nnc2C2CCN(c3ncccn3)CC2)C1` [Example 13, 8-Chloro-5-methyl-1-(1-pyrimidin-2-yl-piperidin-4-yl)-5,6-dihydro-4H-2,3,5,10b-tetraaza-benzo[e]azulene] showed a Ki of 13.9 nM.

`CN1CCOC(CN2Cc3cc(Cl)ccc3-n3c(nnc3C3CCN(c4ccccn4)CC3)C2)C1` (single isomer, unassigned) [Example 74, 8-Chloro-5-(4-methyl-morpholin-2-ylmethyl)-1-(3,4,5,6-tetrahydro-2H-[1,2′]bipyridinyl-4-yl)-5,6-dihydro-4H-2,3,5,10b-tetraaza-benzo[e]azulene] returned a Ki of 6.02 nM. The compound `CN1CCc2cc(Cl)ccc2-n2c(nnc2C2CCN(c3ccccn3)CC2)C1` [Example 24, 13-Chloro-8-methyl-3-(3,4,5,6-tetrahydro-2H-[1,2′]bipyridinyl-4-yl)-2,4,5,8-tetraaza-tricyclo[9.4.0.0*2,6*]pentadeca-1(11),3,5,12,14-pentaene] gave a Ki of 1 nM.
